# Assay results: patent US20240174648A1, “Small Molecule Compound” (Technoderma Medicines Pte Ltd, priority 2019, published 2024)
# Experiments:
# Type in all cases: biochemical
# JAK2 = JAK2 (Homo sapiens, UniProt O60674); test: JAK kinase inhibition assay (EZ Reader, peptide substrate phosphorylation) - JAK2; conditions: JAK2 kinase 1 nM; 8 concentration points, max 10 μM
# Description: (§1) Assay for Identifying Inhibitory Effects of Compounds on JAK Kinases
# (§2) Janus kinases (JAK), including JAK1, JAK2, JAK3 and Tyk2, transduce a cytokine-mediated signal through a JAK-STAT pathway. The kinases are 120-140 kDa in size and have 7 determined homology regions: JH1 to JH7. JH1 is an important region for enzymatic activity and has typical characteristics of tyrosine kinases. Phosphorylation of tyrosine leads to a change in the conformation of JAK protein, thereby promoting binding of substrate. The JAK-STAT system includes three main parts: receptors penetrating a cell membrane, Janus kinases binding to the receptors, and signal transducers and activators of transcription (STAT) for transmitting signals to a nucleus and DNA. When cytokines bind to receptors, JAK phosphorylates the receptors and attracts STAT proteins. The STAT proteins are also phosphorylated and combined with one another to form dimers. The dimers enter the nucleus and bind to DNA, thereby leading to gene transcription.
# (§3) EZ Reader from PerkinElmer can be used to detect the phosphorylation of polypeptide substrates catalyzed by kinases. The device is based on microfluidic techniques, and can directly detect fluorescently labeled substrates and products. The separation step is achieved by controlling the pressure and electric field strength in the microfluidic chip. In kinase assays, a product conversion ratio is usually controlled to be 20-30%. A biological test is used to identify inhibitory effects of compounds on JAKs.
# (§4) Compound powder was dissolved in DMSO, sealed and stored in a freezer under −20° C. The in-house compound Ref1 was used as a positive control for JAK1, JAK2 and Tyk2 tests, and Ref2 was used as a positive control for JAK3 tests.
# (§5) S2.8. Assay buffer: 20 mM HEPES buffer, pH 7.4, 10 mM magnesium chloride, 0.01% bovine serum albumin BSA, 0.0005% Tween-20 and 1 mM dithiothreitol solution.
# (§6) S2.9. Stop buffer: 180 mM HEPES buffer, 20 mM ethylenediaminetetraacetic acid and 0.2% coating reagent 3.
# (§7) S2.10. Separation buffer: 100 mM HEPES buffer, 10 mM ethylenediaminetetraacetic acid, 0.0005% Tween 20, 0.1% coating reagent 3 and 1% dimethyl sulfoxide.
# The compound was dissolved in dimethyl sulfoxide and diluted to 10 mM concentration, a certain volume of solution was taken and diluted to 0.6 mM concentration, 10 μL of the 0.6 mM dilution was added to a 384-well microplate, and then was diluted 3-fold with a total of 8 concentration points.
# Positive control (HPE1): Ref1, final concentration: 10 μM […]
# (§8) Negative control (ZPE): DMSO, final content: 1.6%
# (§9) Compounds: maximum final concentration: 10 μM; 3-fold dilution, 8 concentration points and 2 duplicates.
# (§10) S4.1. 250 nL of the compound was added to each well of the assay microplate by using ECHO, and centrifuged at 1000 rpm for 1 minute.
# (§11) S4.2. 5 μL of the assay buffer was added and agitated for a few seconds to fully dissolve the compound.
# (§12) S4.3. 5 μL of 3× substrate solution and 5 μL of 3× kinase solution were added and centrifuged at 800 rpm for 1 minute.
# (§13) S4.4. Final concentrations of JAK1, JAK2, JAK3 and Tyk2 kinases in the reaction system were 20 nM, 1 nM, 1 nM and 1 nM respectively.
# (§14) S4.5. Incubation at room temperature, where kinases had time differences, and different batches of kinases had time differences.
# (§15) S4.6. When 20%-30% of the reaction completed, 15 μL of stop buffer was added to stop the reaction, and centrifuged at 1000 rpm for 2 minutes.
# (§16) S4.7. The microplates were placed on EZ Reader for reading.
# (§17) S4.8. Readings on EZ Reader were calculated by using a peak height, where product conversion ratio (%)=product/(product+substrate)*100.
# (§18) 5. Data Processing: IC50 calculation
# (§19) A graphing software Xlfit was used to form a concentration curve of the test compound, and an IC50 value was calculated.
# (§20) “A” means “≥10 μM”; “B” means “≥1 μM and <10 μM”; “C” means “≥0.1 μM and <1 μM”; and “D” means “<0.1 μM”.
# Tyk2 = Tyk2 (Homo sapiens, UniProt P29597); test: JAK kinase inhibition assay (EZ Reader, peptide substrate phosphorylation) - Tyk2; conditions: Tyk2 kinase 1 nM; 8 concentration points, max 10 μM
# Method in brief: (§21)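 Microfluidic mobility-shift detection of fluorescent peptide substrate phosphorylation, with JAK1 at 20 nM and JAK2, JAK3 and Tyk2 each at 1 nM final, in 20 mM HEPES pH 7.4, 10 mM MgCl2, 1 mM DTT. Reactions run at room temperature to 20–30% conversion, then EDTA-stopped. Compounds tested at 8 three-fold dilutions from 10 μM top final; IC50 from conversion curves.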
# JAK1 = JAK1 (Homo sapiens, UniProt P23458); test: JAK kinase inhibition assay (EZ Reader, peptide substrate phosphorylation) - JAK1; conditions: JAK1 kinase 20 nM; 8 concentration points, max 10 μM
# Method in brief: as §21
# JAK3 = biological target: T1, JAK3 (Homo sapiens, UniProt P52333); test: JAK kinase inhibition assay (EZ Reader, peptide substrate phosphorylation) - JAK3; conditions: JAK3 kinase 1 nM; 8 concentration points, max 10 μM
# T1 sequence (P52333 1-1124): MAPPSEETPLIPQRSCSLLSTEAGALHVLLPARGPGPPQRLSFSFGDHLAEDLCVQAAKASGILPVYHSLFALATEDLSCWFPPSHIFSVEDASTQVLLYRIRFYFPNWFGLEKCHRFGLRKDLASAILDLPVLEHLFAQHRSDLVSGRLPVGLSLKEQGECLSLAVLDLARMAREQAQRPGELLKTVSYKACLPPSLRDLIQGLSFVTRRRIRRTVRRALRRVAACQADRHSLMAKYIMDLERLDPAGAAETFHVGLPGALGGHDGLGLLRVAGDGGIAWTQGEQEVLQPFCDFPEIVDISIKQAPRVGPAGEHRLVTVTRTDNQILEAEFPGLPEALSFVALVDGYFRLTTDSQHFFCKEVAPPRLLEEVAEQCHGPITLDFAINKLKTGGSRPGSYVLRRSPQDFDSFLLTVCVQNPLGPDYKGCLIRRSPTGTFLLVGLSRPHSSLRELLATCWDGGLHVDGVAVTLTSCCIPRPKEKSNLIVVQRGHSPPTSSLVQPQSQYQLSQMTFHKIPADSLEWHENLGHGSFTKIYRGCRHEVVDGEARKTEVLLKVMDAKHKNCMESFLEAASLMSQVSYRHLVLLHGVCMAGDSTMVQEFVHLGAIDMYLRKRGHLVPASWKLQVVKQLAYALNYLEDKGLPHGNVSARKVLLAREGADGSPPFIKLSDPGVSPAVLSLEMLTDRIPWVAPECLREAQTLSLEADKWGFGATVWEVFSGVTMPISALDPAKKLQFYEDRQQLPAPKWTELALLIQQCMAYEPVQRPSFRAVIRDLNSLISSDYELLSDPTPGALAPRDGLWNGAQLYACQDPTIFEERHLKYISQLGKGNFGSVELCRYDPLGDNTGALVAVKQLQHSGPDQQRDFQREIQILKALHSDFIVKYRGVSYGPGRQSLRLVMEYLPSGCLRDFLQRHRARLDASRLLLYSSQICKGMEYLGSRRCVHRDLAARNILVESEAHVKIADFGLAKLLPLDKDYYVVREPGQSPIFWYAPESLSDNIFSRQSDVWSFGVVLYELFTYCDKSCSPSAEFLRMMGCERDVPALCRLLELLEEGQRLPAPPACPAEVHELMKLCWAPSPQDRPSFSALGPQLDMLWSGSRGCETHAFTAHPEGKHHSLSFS
# Description: as §1, §2, §3, §4, §5, §6, §7
# The compound was dissolved in dimethyl sulfoxide and diluted to 10 mM concentration, a certain volume of solution was taken and diluted to 0.6 mM concentration, 10 μL of the 0.6 mM dilution was added to a 384-well microplate, and then was diluted 3-fold with a total of 8 concentration points. […]
# Positive control (HPE1): Ref2, final concentration: 10 μM
# as §8, §9, §10, §11, §12, §13, §14, §15, §16, §17, §18, §19, §20
# Chain of Tyk2 (P29597 whole entry): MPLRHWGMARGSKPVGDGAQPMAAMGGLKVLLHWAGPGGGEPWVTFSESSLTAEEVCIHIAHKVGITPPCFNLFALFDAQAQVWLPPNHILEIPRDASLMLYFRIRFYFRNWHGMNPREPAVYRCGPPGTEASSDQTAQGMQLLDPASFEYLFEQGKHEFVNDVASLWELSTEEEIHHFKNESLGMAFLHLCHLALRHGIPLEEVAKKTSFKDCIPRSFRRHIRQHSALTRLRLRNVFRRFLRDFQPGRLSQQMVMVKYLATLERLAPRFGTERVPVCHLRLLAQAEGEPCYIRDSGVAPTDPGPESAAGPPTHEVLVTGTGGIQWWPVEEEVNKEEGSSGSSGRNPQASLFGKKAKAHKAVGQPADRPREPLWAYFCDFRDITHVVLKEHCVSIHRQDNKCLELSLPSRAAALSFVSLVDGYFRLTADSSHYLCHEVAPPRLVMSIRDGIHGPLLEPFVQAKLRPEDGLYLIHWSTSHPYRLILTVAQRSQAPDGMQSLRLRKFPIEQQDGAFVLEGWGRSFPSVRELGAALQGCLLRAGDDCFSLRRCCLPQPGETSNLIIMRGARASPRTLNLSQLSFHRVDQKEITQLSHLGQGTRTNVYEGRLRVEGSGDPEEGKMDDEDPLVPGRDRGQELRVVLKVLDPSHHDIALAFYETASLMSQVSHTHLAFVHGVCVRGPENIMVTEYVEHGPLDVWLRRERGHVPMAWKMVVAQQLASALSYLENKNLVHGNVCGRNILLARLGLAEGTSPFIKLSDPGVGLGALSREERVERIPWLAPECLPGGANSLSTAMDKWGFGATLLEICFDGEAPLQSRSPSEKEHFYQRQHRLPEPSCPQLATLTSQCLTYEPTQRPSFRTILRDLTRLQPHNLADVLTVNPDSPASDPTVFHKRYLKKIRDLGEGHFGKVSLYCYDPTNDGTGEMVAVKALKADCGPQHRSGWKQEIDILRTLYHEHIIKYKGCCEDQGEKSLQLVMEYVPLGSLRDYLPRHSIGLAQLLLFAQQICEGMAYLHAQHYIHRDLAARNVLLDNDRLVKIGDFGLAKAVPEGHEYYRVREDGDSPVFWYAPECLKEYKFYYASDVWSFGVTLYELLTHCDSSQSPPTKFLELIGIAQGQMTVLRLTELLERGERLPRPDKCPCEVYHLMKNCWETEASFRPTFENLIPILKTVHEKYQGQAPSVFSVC
# Chain of JAK1 (P23458 whole entry): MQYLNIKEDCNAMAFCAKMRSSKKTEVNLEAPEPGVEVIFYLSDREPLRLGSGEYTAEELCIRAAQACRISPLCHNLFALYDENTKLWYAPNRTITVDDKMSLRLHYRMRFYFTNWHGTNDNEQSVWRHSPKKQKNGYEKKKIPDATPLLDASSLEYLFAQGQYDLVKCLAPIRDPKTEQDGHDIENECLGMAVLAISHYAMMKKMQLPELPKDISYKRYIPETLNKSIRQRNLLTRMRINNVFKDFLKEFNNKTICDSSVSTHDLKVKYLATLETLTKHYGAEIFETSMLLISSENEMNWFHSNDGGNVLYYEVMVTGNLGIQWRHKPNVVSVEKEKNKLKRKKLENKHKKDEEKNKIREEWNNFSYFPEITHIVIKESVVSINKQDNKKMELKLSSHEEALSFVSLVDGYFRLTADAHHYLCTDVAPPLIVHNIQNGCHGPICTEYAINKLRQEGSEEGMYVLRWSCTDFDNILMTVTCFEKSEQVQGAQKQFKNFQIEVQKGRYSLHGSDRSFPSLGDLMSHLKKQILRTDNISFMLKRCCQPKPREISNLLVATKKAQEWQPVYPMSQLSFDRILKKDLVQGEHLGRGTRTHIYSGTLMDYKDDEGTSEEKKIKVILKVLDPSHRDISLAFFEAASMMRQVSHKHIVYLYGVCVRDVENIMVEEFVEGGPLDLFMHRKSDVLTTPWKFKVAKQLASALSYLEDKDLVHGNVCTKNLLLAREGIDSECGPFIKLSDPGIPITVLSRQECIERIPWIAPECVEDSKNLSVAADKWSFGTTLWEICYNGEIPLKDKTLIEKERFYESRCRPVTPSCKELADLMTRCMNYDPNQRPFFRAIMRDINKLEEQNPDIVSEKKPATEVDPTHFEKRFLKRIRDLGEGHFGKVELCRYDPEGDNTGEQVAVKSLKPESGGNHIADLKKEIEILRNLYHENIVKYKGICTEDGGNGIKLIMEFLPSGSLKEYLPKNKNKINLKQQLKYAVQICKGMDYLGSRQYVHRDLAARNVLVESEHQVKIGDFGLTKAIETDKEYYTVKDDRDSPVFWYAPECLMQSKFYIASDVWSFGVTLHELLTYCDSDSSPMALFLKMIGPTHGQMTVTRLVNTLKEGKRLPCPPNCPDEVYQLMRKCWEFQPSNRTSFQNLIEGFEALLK
# Chain of JAK2 (O60674 whole entry): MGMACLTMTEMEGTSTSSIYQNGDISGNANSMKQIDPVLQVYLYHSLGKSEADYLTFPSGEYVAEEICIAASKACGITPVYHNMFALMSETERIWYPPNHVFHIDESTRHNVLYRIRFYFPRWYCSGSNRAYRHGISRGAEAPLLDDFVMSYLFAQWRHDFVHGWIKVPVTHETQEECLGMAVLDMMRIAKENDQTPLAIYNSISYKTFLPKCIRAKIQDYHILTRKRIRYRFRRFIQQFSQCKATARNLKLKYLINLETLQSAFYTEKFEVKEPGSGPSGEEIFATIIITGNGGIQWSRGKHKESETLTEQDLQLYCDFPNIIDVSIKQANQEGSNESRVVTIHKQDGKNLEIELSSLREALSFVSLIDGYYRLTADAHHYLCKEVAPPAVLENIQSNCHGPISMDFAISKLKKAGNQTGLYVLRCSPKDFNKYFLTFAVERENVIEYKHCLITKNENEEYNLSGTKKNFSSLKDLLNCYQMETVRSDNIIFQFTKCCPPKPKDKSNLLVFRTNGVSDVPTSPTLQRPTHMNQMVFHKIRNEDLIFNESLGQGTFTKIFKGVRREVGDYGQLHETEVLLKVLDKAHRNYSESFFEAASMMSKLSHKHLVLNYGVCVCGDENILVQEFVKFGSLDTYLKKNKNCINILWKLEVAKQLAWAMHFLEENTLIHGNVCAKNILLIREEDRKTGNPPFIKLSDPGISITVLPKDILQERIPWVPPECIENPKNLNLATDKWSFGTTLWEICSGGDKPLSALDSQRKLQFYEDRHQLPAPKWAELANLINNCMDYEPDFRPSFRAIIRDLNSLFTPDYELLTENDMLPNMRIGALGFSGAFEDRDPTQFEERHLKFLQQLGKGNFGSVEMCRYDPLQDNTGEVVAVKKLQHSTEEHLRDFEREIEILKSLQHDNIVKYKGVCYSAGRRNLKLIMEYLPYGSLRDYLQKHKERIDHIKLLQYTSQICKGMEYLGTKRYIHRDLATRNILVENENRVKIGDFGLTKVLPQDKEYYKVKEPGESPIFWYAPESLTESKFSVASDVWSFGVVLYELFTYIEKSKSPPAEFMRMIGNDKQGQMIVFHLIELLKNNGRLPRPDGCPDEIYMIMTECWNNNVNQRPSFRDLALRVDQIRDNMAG
IC50 (JAK2) [µM],IC50 (Tyk2) [µM],IC50 (JAK1) [µM],IC50 (JAK3) [µM],Compound
0.1 to 1,0.1 to 1,0.1 to 1,1 to 10,"Cn1cc(Nc2nccc(-c3ccc(NS(=O)(=O)C4CC4)cc3)n2)cn1 [TDM-180767, N-(4-(2-((1-methyl-1H-pyrazol-4-yl)amino)pyrimidin-4-yl)phenyl)cyclopropanesulfo]"
1 to 10,1 to 10,1 to 10,≥ 10,"COCC(=O)Nc1ccc(-c2ccnc(Nc3cnn(C)c3)n2)cc1 [TDM-180759, 2-methoxy-N-(4-(2-((1-methyl-1H-pyrazol-4-yl)amino)pyrimidin-4-yl)phenyl)acetamide]"
1 to 10,1 to 10,1 to 10,≥ 10,"Cn1cc(Nc2nccc(-c3ccc(C(=O)N4CCS(=O)(=O)CC4)nc3)n2)cn1 [TDM-180764, (1,1-sulfur dioxide) (5-(2-((1-methyl-1H-pyrazol-4-yl)amino)pyrimidin-4-yl)pyridin-2-yl)methanone]"
0.1 to 1,0.1 to 1,0.1 to 1,1 to 10,"Cn1cc(Nc2nccc(-c3ccc(NC(=O)CC#N)nc3)n2)cn1 [TDM-180833, 2-cyano-N-(5-(2-((1-methyl-1H-pyrazol-4-yl)amino)pyrimidin-4-yl)pyridin-2-yl)acetamide]"
< 0.1,0.1 to 1,< 0.1,1 to 10,"Cn1cc(Nc2nccc(-c3ccc(NC(=O)CC(F)(F)F)cc3)n2)cn1 [TDM-180754, 3,3,3-trifluoro-N-(4-(2-((1-methyl-1H-pyrazol-4-yl)amino)pyrimidin-4-yl)phenyl)propanamide]"
0.1 to 1,0.1 to 1,0.1 to 1,≥ 10,"Cn1cc(Nc2nccc(-c3ccc(NC(=O)C4(F)CC4)nc3)n2)cn1 [TDM-180821, 1-fluoro-N-(5-(2-((1-methyl-1H-pyrazol-4-yl)amino)pyrimidin-4-yl)pyridin-2-yl)cyclopropane-1-carboxamide]"
0.1 to 1,0.1 to 1,0.1 to 1,1 to 10,"Cn1cc(Nc2nccc(-c3ccc(NC(=O)C(F)F)nc3)n2)cn1 [TDM-180849, 2,2-difluoro-N-(5-(2-((1-methyl-1H-pyrazol-4-yl)amino)pyrimidin-4-yl)pyridin-2-yl)acetamide]"
0.1 to 1,0.1 to 1,0.1 to 1,≥ 10,"Cn1cc(Nc2nccc(-c3ccc(NC(=O)C4(F)CC4)cc3)n2)cn1 [TDM-180803, 1-fluoro-N-(4-(2-((1-methyl-1H-pyrazol-4-yl)amino)pyrimidin-4-yl)phenyl)cyclopropane-1-carboxamide]"
0.1 to 1,0.1 to 1,0.1 to 1,1 to 10,"CCS(=O)(=O)Nc1ccc(-c2ccnc(Nc3cnn(C)c3)n2)cc1 [TDM-180768, N-(4-(2-((1-methyl-1H-pyrazol-4-yl)amino)pyrimidin-4-yl)phenyl)ethanesulfonamide]"
0.1 to 1,0.1 to 1,< 0.1,0.1 to 1,"Cn1cc(Nc2nccc(-c3ccc(NC(=O)CC(F)(F)F)nc3)n2)cn1 [TDM-180830, 3,3,3-trifluoro-N-(5-(2-((1-methyl-1H-pyrazol-4-yl)amino)pyrimidin-4-yl)pyridin-2-yl)propanamide]"
0.1 to 1,1 to 10,0.1 to 1,≥ 10,"Cn1cc(Nc2nccc(-c3ccc(NC(=O)C4CCC4)cc3)n2)cn1 [TDM-180813, N-(4-(2-((1-methyl-1H-pyrazol-4-yl)amino)pyrimidin-4-yl)phenyl)cyclobutanemethyl]"
< 0.1,< 0.1,< 0.1,1 to 10,"Cn1cc(Nc2nccc(-c3ccc(NC(=O)C4CC4)cc3)n2)cn1 [TDM-180755, N-(4-(2-((1-methyl-1H-pyrazol-4-yl)amino)pyrimidin-4-yl)phenyl)cyclopropanecarboxamide]"
< 0.1,< 0.1,< 0.1,0.1 to 1,"Cn1cc(Nc2nccc(-c3ccc(NC(=O)C4CC4(F)F)cc3)n2)cn1 (stereo not drawn) [TDM-180757, 2,2-difluoro-N-(4-(2-((1-methyl-1H-pyrazol-4-yl)amino)pyrimidin-4-yl)phenyl)cyclopropane-1-carboxamide]"
0.1 to 1,0.1 to 1,0.1 to 1,≥ 10,"Cn1cc(Nc2nccc(-c3ccc(NS(=O)(=O)CCC(F)(F)F)cc3)n2)cn1 [TDM-180850, 3,3,3-trifluoro-N-(4-(2-((1-methyl-1H-pyrazol-4-yl)amino)pyrimidin-4-yl)phenyl)propyl-1-sulfonamide]"
< 0.1,0.1 to 1,< 0.1,1 to 10,"CCOCCS(=O)(=O)Nc1ccc(-c2ccnc(Nc3cnn(C)c3)n2)cc1 [TDM-180834, 2-ethoxyl-N-(4-(2-((1-methyl-1H-pyrazol-4-yl)amino)pyrimidin-4-yl)phenyl)ethyl-1-sulfonamide]"
